{"source": "patent US20260234185A1", "about": "“ANTI-AGING COMPOSITION COMPRISING PEPTIDE COMPLEX AS ACTIVE INGREDIENT” (priority 2023, published 2026)", "key": {"[1]": {"tested_on": "fibroblast growth factor 21 (FGF21) gene", "test": "RT-PCR of FGF21 gene expression in palmitate-treated adipocytes", "assay_type": "cell-based", "settings": "3T3-L1 adipocytes, 25 μM palmitate 30 minutes; 0.2, 2, 20 μg/mL; 24 hours; RT-PCR vs palmitate control (PA) (FIGS. 4a, 4b)", "method": "An experiment was performed to determine whether the peptide complex prepared in Preparation Example 1 increases the gene expression of longevity-related genes, FGF21, SIRT1, AMPK, and FOXO3A, in adipocytes in a state of insulin metabolic disorder induced by palmitate treatment.\nWhen 3T3-L1 preadipocytes reached 80% confluence, they were seeded at 5×10^3 cells/well in a 96-well plate and used for the experiment. Two days after reaching confluence, the medium was replaced with differentiation-inducing medium to induce the differentiation into adipocytes, and two days after the induction, the medium was cultured for 2 days in a medium containing 10% FBS and 10 μg/mL insulin, and then the medium was replaced with 10% FBS every 2 days until their differentiation into adipocytes. After differentiation was complete, the medium was replaced with glucose-free medium, cultured for 16 hours, and then starvation was induced by culturing for 40 minutes in 100 μL KPPH buffer containing 2% BSA. After treating with 25 μM palmitate for 30 minutes, the peptide complexes were treated at concentrations of 0.2 μg/mL, 2 μg/mL, and 20 μg/mL, cultured for 24 hours, and RNA was extracted after 24 hours and RT-PCR was performed. […] Subsequently, the mRNA expression pattern was determined by agarose gel electrophoresis."}, "SIRT1": {"tested_on": "SIRT1", "test": "Western blot of SIRT1 protein expression in myocytes", "assay_type": "cell-based, mouse", "settings": "differentiated C2C12 myocytes; 0.2, 2, 20 μg/mL; 24 hours; Western blot (FIGS. 6a, 6b)", "method": "An experiment was performed to determine whether the peptide complex increases the phosphorylation of AMPK and the expression of SIRT1 and FGF21 proteins in myocytes.\nC2C12 cells, mouse-derived myoblasts, were cultured in DMEM medium containing 1% P/S and 2% BCS. When the cell confluency reached 70-80%, the cells were seeded in a 6-well culture plate. When the cell confluency in the 6-well culture plate reached 100%, the medium was replaced with differentiation medium (1% P/S, 2% horse serum), and thereafter, the differentiation medium (1% P/S, 2% horse serum) was replaced once every two days. Five days after the first replacement, the peptide complex was treated at concentrations of 0.2 μg/mL, 2 μg/mL, and 20 μg/mL and cultured for 24 hours. The group untreated with the peptide complex was used as the control. After dissolving by adding dissolution buffer thereto, the proteins obtained were centrifuged at 4° C. and 12,000 rpm for 30 minutes, and quantified using a BCA kit. The proteins were subjected to sodium dodecyl sulfate-polyacrylamide gel electrophoresis (SDS-PAGE) and then electrotransferred onto a membrane. The membrane with the proteins attached was blocked by treating it with 5% skim milk, and then the primary antibody was reacted overnight at 4° C. […]"}, "[2]": {"tested_on": "inflammatory cytokine TNFα", "test": "Western blot of TNFα expression in adipocytes with palmitate-induced inflammation", "assay_type": "cell-based", "settings": "3T3-L1 adipocytes, inflammation induced by 25 μM palmitate; 0.2, 2, 20 μg/mL; 24 hours; Western blot vs PA control (FIGS. 5a, 5b)", "method": "(§1) An experiment was performed to determine whether the peptide complex prepared in Preparation Example 1 induces a decrease in the phosphorylation of IκBα and a decrease in the expression level of the inflammatory cytokine TNFα in adipocytes under an inflammatory state induced by palmitate treatment.\n(§2) When 3T3-L1 preadipocytes reached 80% confluence, they were seeded at 5×10^3 cells/well in a 96-well plate and used for the experiment. Two days after reaching confluence, the medium was replaced with a differentiation-inducing medium to induce the differentiation into adipocytes. Two days after the induction, the cells were cultured for 2 days in a medium containing 10% FBS and 10 μg/mL insulin, and then the medium was replaced with 10% FBS every days 2 until their differentiation into adipocytes. Once the differentiation was complete, the medium was replaced with a serum-free medium and cultured for 4 hours to induce starvation. After treating with 25 μM palmitate for 30 minutes, the peptide complexes were treated at concentrations of 0.2 μg/mL, 2 μg/mL, and 20 μg/mL and incubated for 24 hours. The control group (PA) was treated only with palmitate but not with the peptide complex. After dissolving by adding dissolution buffer thereto, the proteins obtained by centrifugation at 4° C. and 12,000 rpm for 30 minutes were quantified using a BCA kit. […]"}, "IκBα": {"tested_on": "IκBα", "test": "Western blot of IκBα phosphorylation in adipocytes with palmitate-induced inflammation", "assay_type": "cell-based", "settings": "3T3-L1 adipocytes, inflammation induced by 25 μM palmitate; 0.2, 2, 20 μg/mL; 24 hours; Western blot vs PA control (FIGS. 5a, 5b)", "method": "as §1, §2"}}, "note": "Where no end group is shown, it is not given here."}
{"substance": "peptide complex: prepared by mixing equal amounts of the peptide of SEQ ID NO: 1 (LKTRN) and the peptide of SEQ ID NO: 2 (KGSATGWMA) (also: mixture of two peptides)", "values": [{"measurement": "expression of fibroblast growth factor 21 (FGF21) gene", "setting": "[1]", "value": "increased"}, {"measurement": "expression level of SIRT1 protein", "setting": "SIRT1", "value": "increased"}, {"measurement": "expression level of TNFα", "setting": "[2]", "value": "reduced"}, {"measurement": "phosphorylation of IκBα", "setting": "IκBα", "value": "reduced"}]}
